Test results published in patent US20220249364A1, “Designed Inhibitors of Tight Junction Formation” (University of Rochester, priority 2019, published 2022).
No end group written: not given here.

Experiments:
[1] = test system: 16HBE cells; assay: TER measurement of tight junction disruption in 16HBE cells; format: cell-based, human; details: 12 and 96 μM, over 24 hours
Method: PHFK were isolated from discarded foreskin tissue. Isolation and propagation procedures for both PHFK and 16HBE cells were done as previously described (Poumay, Roland, Leclercq-Smekens, & Leloup, 1994; Saatian et al., 2013).
10 mgs of synthesized TJDP (RS SYNTHESIS) was dissolved in 100 μl of DMSO (SIGMA). Dissolved peptide was then diluted in pre-warmed (55 ° C.) DMSO/PLURONIC F127® (SPECTRUM) solution formulated in PBS (0.6% / 0.12%, respectively). This solution was heated at 55° C. for 30 minutes then homogenized into detergent using a water bath sonicator (BRANSON 2200) for 10 minutes and vortexed for 1 minute. Peptide was stored at 4° C. until use.
TER and paracellular flux were done as previously published (De Benedetto, Rafaels, et al., 2011). […] 2 μM of fluorescently-labeled antibody (palivizumab) was added to cells after 24 hours of exposure to TJDP and paracellular flux was measured 30 minutes and 18 hours later.
Initial experiments employed the human bronchial epithelial cell line, 16HBE since this cell line is known for its robust TJ formation (Saatian et al., 2013). […] The honeycomb fluorescence pattern of these proteins on the cell surface is a hallmark of a barrier competent TJ (Furuse, Fujita, Hiiragi, Fujimoto, & Tsukita, 1998; Furuse et al., 1993). […] The antibody diffusion was measured at 30 min to reduce the likelihood that active transcellular transport was measured.

[2] = test system: 16HBE cells; assay: WST-1 cell viability assay in 16HBE cells; format: cell-based, human; details: 50 μM, highest concentration tested
Method: (§1) For cytotoxicity measurements, cells were plated at a density of 75,000 cells/well in a 96-well plate and grown to confluence (2 days). Cells were then exposed to vehicle or TJDP and viability was measured at 24, 48 and 96 hours. WST-1 reagent (ROCHE) was diluted 20-fold into each well, and cells were incubated at 37° C. Duplicate readings were taken at 0.5 and 1 hour after addition using a THERMO MULTISKAN EX plate reader (A450—background A620). Media only wells were subtracted and values were normalized to media treated controls.

[3] = test system: primary human foreskin keratinocytes (PHFK); assay: WST-1 cell viability assay in PHFK; format: cell-based
Method: as §1

**Q.** With (FKFE)2 as the substance, how does the “effect on TER values (control peptide)” value [1] read?
**A.** did not affect TER values

**Q.** “SILTGVSTLDQSLKQLSNFSQAVSTQSSR [Peptide 2]” was tested. Which “viability (WST-1)” value [2] did it give?
**A.** no loss of viability

**Q.** And the “toxicity (WST-1)” value ([3]; 30 μM, p<0.05)?
**A.** Modest toxicity

**Q.** And the “cell death (WST-1)” value ([3]; lower concentrations with robust inhibition of TJ formation)?
**A.** no appreciable cell death

**Q.** With “SSVSQSTGQIQSKVFDSLLNLSSTLQATR [Peptide 1]” as the substance, how does the “viability (WST-1)” value [2] read?
**A.** no loss of viability
